Results: patent US10189809B2, “SGC stimulators” (Ironwood Pharmaceuticals, Inc., priority 2010, dated 2019)
Read-outs that look alike come from different tables or passages of the source.

Tests used:
[1] = target: Human soluble guanylate cyclase enzyme (hsGC) (Homo sapiens (Human), UniProt Q02108+Q02153); test: Purified human sGC enzyme activity assay; format: biochemical; conditions: for sGC Enzyme (specific activity at 10 μM) / sGC Enzyme (fold increase at 10 μM without SNP): 10 μM compound; for sGC Enzyme (specific activity at 30 μM) / sGC Enzyme (fold increase at 30 μM without SNP): 30 μM compound
Procedure: Human soluble guanylate cyclase enzyme (hsGC) obtained from Enzo Inc. (P/N: ALX-201-177) was used to evaluate the activity of test compounds. The assay reactions contained 0.1 M Tris (pH 8.0), 0.5 mg/mL BSA (pH 8.0), 2 mM DTT, 2 mM MgCl2, 300 μM GTP, 1 mM 3-isobutyl-1-methylxanthine (IBMX) and 5 ng human soluble guanylate cyclase enzyme. Test compounds in DMSO were then added (2 μL, 10 or 30 μM final concentration) and incubated (200 μL, 96-well plate format) at 37° C. for 30 minutes. The controls were carried out using 2 μL DMSO. After the 30 minute incubation, the reaction was stopped with the addition of 200 μL of cold methanol. The plate was then centrifuged at 3,200 rpm for 10 minutes at room temperature. Supernatants (200 μL) were collected and transferred to a new 96 well plate for analysis.
An 8 point cGMP (Sigma-Aldrich P/N: G6129) standard curve was prepared in assay buffer ranging from 0.156-20 μM. Samples for the cGMP standard curve were then diluted with an equal volume of methanol resulting in final cGMP concentrations of 0.078-10 μM.
The cGMP standard curve was generated using GraphPad Prism Software.
Calculations: Specific Activity was determined by the amount of cGMP formed (nmoles) per mg of sGC per min. Enzyme “fold-change” was calculated by dividing Specific Activity for test compounds by Specific Activity of DMSO controls.

[2] = target: soluble guanylate cyclase (sGC) (Homo sapiens (Human), UniProt Q02108+Q02153); test: sGC-HEK-cGMP assay run with SNP incubation (HEK WC assay); format: cell-based; conditions: for EC50: in the presence of 10 uM SNP
Procedure: Human embryonic kidney cells (HEK293), endogenously expressing soluble guanylate cyclase (sGC), were used to evaluate the activity of test compounds. Compounds stimulating the sGC receptor should cause an increase in the intracellular concentration of cGMP. HEK 293 cells were seeded in Dulbecco's Modification of Eagle's Medium supplemented with fetal bovine serum (10% final) and L-glutamine (2 mM final) in a 200 μL volume at a density of 1×10^5 cells/well in a poly-D-lysine coated 96 well flat bottom plate and grown overnight at 37° C. Medium was aspirated and cells were washed with 1× Hank's Buffered Saline Salt Solution (200 μL). Cells were then incubated for 15 minutes at 37° C. with 0.5 mM 3-isobutyl-1-methylxanthine (200 μL). Test article and sodium nitroprusside were then added to the assay mixture (2 μL each) and incubated at 37° C. for 10 minutes. After the 10 minute incubation, the assay mixture was aspirated and 0.1M HCl (200 μL) was added to the cells. The plate was incubated at 4° C. for 30 minutes in the 0.1M HCl to stop the reaction and lysed the cells. The plates were then centrifuged at 1,200 g for 5 minutes at room temperature. Supernatants were collected and transferred to a new flat bottom 96 well plate for analysis. Vehicle controls were carried out using DMSO (1%). […] Samples were diluted with an equal volume of 1 M Ammonium Acetate (pH 7) to neutralize samples for better chromatography. […] EC50 values were calculated from concentration-response curves generated with GraphPad Prism Software.

[3] = read-out: HEK WC Assay (% Emax at 10 μM with 10 uM SNP)
[4] = read-out: HEK WC Assay (% Emax at 30 μM with 10 uM SNP)
[5] = read-out: HEK WC Assay (% Emax at 1 μM with 10 uM SNP)

Sequence of Human soluble guanylate cyclase enzyme (hsGC) (Q02153 whole entry): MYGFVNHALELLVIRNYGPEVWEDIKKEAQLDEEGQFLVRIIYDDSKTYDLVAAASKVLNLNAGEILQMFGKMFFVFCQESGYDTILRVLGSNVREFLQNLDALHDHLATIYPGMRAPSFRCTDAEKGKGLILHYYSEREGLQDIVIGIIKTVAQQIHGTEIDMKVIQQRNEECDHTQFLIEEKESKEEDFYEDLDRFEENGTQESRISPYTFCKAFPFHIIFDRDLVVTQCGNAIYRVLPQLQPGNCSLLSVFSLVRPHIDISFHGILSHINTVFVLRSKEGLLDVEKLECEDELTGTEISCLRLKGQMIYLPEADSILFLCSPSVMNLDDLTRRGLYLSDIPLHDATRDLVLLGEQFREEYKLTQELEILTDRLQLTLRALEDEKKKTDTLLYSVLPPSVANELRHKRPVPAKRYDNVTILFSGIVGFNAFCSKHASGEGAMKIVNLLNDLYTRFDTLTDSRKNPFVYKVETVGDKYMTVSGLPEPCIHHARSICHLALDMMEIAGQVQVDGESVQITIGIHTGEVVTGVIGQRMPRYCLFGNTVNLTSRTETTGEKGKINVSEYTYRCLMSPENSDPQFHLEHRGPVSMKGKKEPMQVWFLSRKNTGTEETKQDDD
Sequence of Human soluble guanylate cyclase enzyme (hsGC) (Q02108 whole entry): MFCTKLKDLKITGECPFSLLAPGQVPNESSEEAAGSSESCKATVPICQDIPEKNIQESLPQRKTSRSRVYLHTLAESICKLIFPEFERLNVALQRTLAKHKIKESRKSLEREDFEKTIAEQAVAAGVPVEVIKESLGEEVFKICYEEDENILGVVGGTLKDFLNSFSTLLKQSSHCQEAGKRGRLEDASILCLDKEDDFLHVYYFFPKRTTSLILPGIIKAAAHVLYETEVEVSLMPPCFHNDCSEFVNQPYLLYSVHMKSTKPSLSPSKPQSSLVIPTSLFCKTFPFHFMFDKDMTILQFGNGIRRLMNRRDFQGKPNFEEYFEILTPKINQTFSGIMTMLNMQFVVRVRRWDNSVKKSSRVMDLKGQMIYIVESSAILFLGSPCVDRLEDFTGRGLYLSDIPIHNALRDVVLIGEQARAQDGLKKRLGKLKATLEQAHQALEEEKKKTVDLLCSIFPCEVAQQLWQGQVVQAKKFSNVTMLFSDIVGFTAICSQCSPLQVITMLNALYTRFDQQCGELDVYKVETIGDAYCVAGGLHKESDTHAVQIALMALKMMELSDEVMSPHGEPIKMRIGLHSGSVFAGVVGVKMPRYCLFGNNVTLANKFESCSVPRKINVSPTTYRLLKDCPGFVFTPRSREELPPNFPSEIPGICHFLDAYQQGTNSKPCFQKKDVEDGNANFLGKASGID
Sequence of soluble guanylate cyclase (sGC) (Q02153 whole entry): as the sequence (Q02153 whole entry) above
Sequence of soluble guanylate cyclase (sGC) (Q02108 whole entry): as the sequence (Q02108 whole entry) above

Row | Structure (SMILES) | sGC Enzyme (specific activity at 10 μM) [1] | sGC Enzyme (fold increase at 10 μM without SNP) [1] | sGC Enzyme (specific activity at 30 μM) [1] | sGC Enzyme (fold increase at 30 μM without SNP) [1] | Emax at 10 µM ([2]; read-out: HEK WC Assay (% Emax at 10 μM/with 10 uM SNP)) [%] | Emax at 30 µM ([2]; read-out: HEK WC Assay (% Emax at 30 μM/with 10 uM SNP)) [%] | Emax [2, 3] [%] | Emax [2, 4] [%] | EC50 [2] [µM] | Emax [2, 5] [%]
1 | N#Cc1cccc(-c2cc(-c3ccccn3)nn2Cc2ccccc2F)c1 [Compound I-16] | B (B = 50 to <100) | A (A = no increase to <2 fold increase) | B (B = 50 to <100) | A (A = no increase to <2 fold increase) | – | – | – | – | – | –
2 | N#Cc1ccc(-c2cc(-c3ccccn3)nn2Cc2ccccc2F)cc1 [Compound I-17] | B (B = 50 to <100) | A (A = no increase to <2 fold increase) | B (B = 50 to <100) | A (A = no increase to <2 fold increase) | – | – | – | – | – | –
3 | CS(=O)(=O)c1ccc(-c2cc(-c3ccccn3)nn2Cc2ccccc2F)nc1 [Compound I-73] | – | – | – | – | 0 to 10 | 0 to 10 | – | – | – | –
4 | CS(=O)(=O)Nc1cnc(-c2cc(-c3ccon3)n(Cc3ccccc3F)n2)nc1N [Compound I-145] | – | – | – | – | – | – | 20 to 40 | 20 to 40 | – | –
5 | CC(C)(O)c1cnc(-c2cc(-c3ncco3)n(Cc3ccccc3F)n2)nc1N [Compound I-146] | – | – | – | – | – | – | 40 to 60 | 40 to 60 | – | –
6 | N#Cc1cnc(-c2cc(-c3ncco3)n(Cc3ccccc3F)n2)nc1O [Compound I-155] | – | – | – | – | – | – | 40 to 60 | 60 to 80 | < 20 | –
7 | Nc1nc(-c2cc(-c3ccon3)n(Cc3ccccc3F)n2)ncc1NC(=O)C1CCCCC1 [Compound I-157] | – | – | – | – | – | – | 100 to 120 | 80 to 100 | – | –
8 | CC(C)(Oc1ccccc1)C(=O)Nc1cnc(-c2cc(-c3ccon3)n(Cc3ccccc3F)n2)nc1N [Compound I-230] | – | – | – | – | – | – | 20 to 40 | 20 to 40 | 60 to 100 | 10 to 20
9 | O=S(=O)(c1cc(Cl)ccc1Cl)c1cnc(-c2cc(-c3ccon3)n(Cc3ccccc3F)n2)nc1O [Compound I-242] | – | – | – | – | – | – | 20 to 40 | 20 to 40 | 60 to 100 | 10 to 20
10 | C=CC(C)(C)C(=O)Nc1cnc(-c2cc(-c3ccon3)n(Cc3ccccc3F)n2)nc1N [Compound I-246] | – | – | – | – | – | – | 100 to 120 | 100 to 120 | < 20 | 60 to 80
11 | CCC(C)(C)C(=O)Nc1cnc(-c2cc(-c3ccon3)n(Cc3ccccc3F)n2)nc1N [Compound I-247] | – | – | – | – | – | – | 60 to 80 | 80 to 100 | < 20 | 20 to 40
12 | O=c1cc(O)oc2nc(-c3cc(-c4ccon4)n(Cc4ccccc4F)n3)nc(O)c12 [Compound I-248] | – | – | – | – | – | – | 0 to 10 | 0 to 10 | 600 to 900 | 0 to 10
13 | CN(C)/C=N/c1cnc(-c2cc(-c3ccon3)n(Cc3ccccc3F)n2)nc1 [Compound I-249, N′-(2-(1-(2-fluorobenzyl)-5-(isoxazol-3-yl)-1H-pyrazol-3-yl)pyrimidin-5-yl)-N,N-dimethylformimidamide] | – | – | – | – | – | – | 40 to 60 | 60 to 80 | < 20 | 20 to 40
14 | CC(C)(C)[S+]([O-])Nc1cnc(-c2cc(-c3ccon3)n(Cc3ccccc3F)n2)nc1N[S+]([O-])C(C)(C)C (stereo not shown) [Compound I-250] | – | – | – | – | – | – | 10 to 20 | 10 to 20 | 100 to 300 | 0 to 10
15 | CC(C)(C)S(=O)(=O)Nc1cnc(-c2cc(-c3ccon3)n(Cc3ccccc3F)n2)nc1N [Compound I-251] | – | – | – | – | – | – | 20 to 40 | 20 to 40 | 20 to 40 | 10 to 20
16 | CCCC(F)(F)C(=O)Nc1cnc(-c2cc(-c3ccon3)n(Cc3ccccc3F)n2)nc1N [Compound I-252] | – | – | – | – | – | – | 40 to 60 | 60 to 80 | < 20 | 40 to 60
17 | C=C(C)C(=O)Nc1cnc(-c2cc(-c3ccon3)n(Cc3ccccc3F)n2)nc1N [Compound I-258] | – | – | – | – | – | – | 60 to 80 | 60 to 80 | < 20 | 40 to 60
18 | Nc1nc(-c2cc(-c3ccon3)n(Cc3ccccc3F)n2)ncc1N1Cc2ccccc2C1=O [Compound I-259] | – | – | – | – | – | – | 60 to 80 | 60 to 80 | < 20 | 20 to 40
19 | CC1(C(=O)Nc2cnc(-c3cc(-c4ccon4)n(Cc4ccccc4F)n3)nc2N)CC1(Cl)Cl (stereo not shown) [Compound I-260] | – | – | – | – | – | – | 100 to 120 | 80 to 100 | < 20 | 80 to 100

Row | Structure (SMILES) | sGC Enzyme (specific activity at 10 μM) [1] | sGC Enzyme (fold increase at 10 μM without SNP) [1] | sGC Enzyme (specific activity at 30 μM) [1] | sGC Enzyme (fold increase at 30 μM without SNP) [1] | Emax at 10 µM ([2]; read-out: HEK WC Assay (% Emax at 10 μM/with 10 uM SNP)) [%] | Emax at 30 µM ([2]; read-out: HEK WC Assay (% Emax at 30 μM/with 10 uM SNP)) [%] | Emax [2, 3] [%] | Emax [2, 4] [%] | EC50 [2] [µM] | Emax [2, 5] [%]
20 | Oc1cc(O)nc(-c2cc(-c3ccon3)n(Cc3ccccc3F)n2)n1 [Compound I-261] | – | – | – | – | – | – | 0 to 10 | 0 to 10 | 300 to 600 | 0 to 10
21 | Nc1cnc(-c2cc(-c3ccon3)n(Cc3ccccc3F)n2)nc1 [Compound I-262] | – | – | – | – | – | – | 60 to 80 | 60 to 80 | < 20 | 20 to 40
22 | [2H]C([2H])([2H])C(=O)Nc1cnc(-c2cc(-c3ccon3)n(Cc3ccccc3F)n2)nc1N [Compound I-263] | – | – | – | – | – | – | 100 to 120 | 100 to 120 | < 20 | 40 to 60
23 | CC(C)(C)C(=O)Nc1cnc(-c2cc(-c3ccon3)n(Cc3ccccc3F)n2)nc1 [Compound I-264] | – | – | – | – | – | – | 40 to 60 | 0 to 10 | 300 to 600 | 20 to 40
24 | CC(C)(CO)C(=O)Nc1cnc(-c2cc(-c3ccon3)n(Cc3ccccc3F)n2)nc1N [Compound I-265] | – | – | – | – | – | – | 60 to 80 | 80 to 100 | < 20 | 40 to 60
25 | Oc1nc(-c2cc(-c3ccon3)n(Cc3ccccc3F)n2)ncc1Cl [Compound I-266] | – | – | – | – | – | – | 60 to 80 | 60 to 80 | < 20 | 20 to 40
26 | Fc1ccccc1Cn1nc(-c2ncc(F)c(S)n2)cc1-c1ccon1 [Compound I-267] | – | – | – | – | – | – | 60 to 80 | 80 to 100 | – | 20 to 40
27 | CC(C)(CCl)C(=O)Nc1cnc(-c2cc(-c3ccon3)n(Cc3ccccc3F)n2)nc1N [Compound I-268] | – | – | – | – | – | – | 100 to 120 | 80 to 100 | < 20 | 40 to 60
28 | Nc1nc(-c2cc(-c3ncco3)n(Cc3ccccc3F)n2)ncc1N=C(c1ccccc1)c1ccccc1 [Compound I-269] | – | – | – | – | – | – | 0 to 10 | 10 to 20 | 100 to 300 | 0 to 10
29 | CC(C)(C(=O)Nc1cnc(-c2cc(-c3ccon3)n(Cc3ccccc3F)n2)nc1N)n1cncn1 [Compound I-270] | – | – | – | – | – | – | 40 to 60 | 60 to 80 | < 20 | 10 to 20
30 | O=S(=O)(c1ccccc1)c1cnc(-c2cc(-c3ncco3)n(Cc3ccccc3F)n2)nc1O [Compound I-271] | – | – | – | – | – | – | 60 to 80 | 80 to 100 | < 20 | 40 to 60
31 | Fc1ccccc1Cn1nc(-c2nc(Cl)cc(C(F)(F)F)n2)cc1-c1ccon1 [Compound I-273] | – | – | – | – | – | – | 20 to 40 | 20 to 40 | – | –
32 | CN(C)C(=O)Oc1cnc(-c2cc(-c3ccon3)n(Cc3ccccc3F)n2)nc1 [Compound I-274] | – | – | – | – | – | – | 60 to 80 | 60 to 80 | – | 20 to 40
33 | O=[N+]([O-])c1c(O)nc(-c2cc(-c3ccon3)n(Cc3ccccc3F)n2)nc1O [Compound I-282] | – | – | – | – | – | – | 0 to 10 | 0 to 10 | 900 to 1200 | 0 to 10
34 | Nc1ccnc(-c2cc(-c3ccco3)n(Cc3ccccc3F)n2)n1 [Compound I-284] | – | – | – | – | – | – | 60 to 80 | 60 to 80 | – | –
35 | Fc1ccccc1Cn1nc(-c2ccccn2)cc1-n1cccn1 [Compound I-286] | – | – | – | – | – | – | 0 to 10 | 10 to 20 | – | –
36 | Fc1ccccc1Cn1nc(-c2nc(Cl)cc(-c3cccnc3)n2)cc1-c1ccon1 [Compound I-301] | – | – | – | – | – | – | 40 to 60 | 60 to 80 | < 20 | –
37 | CC(C)(C)OC(=O)n1c(=O)[nH]c2nc(-c3cc(-c4ccon4)n(Cc4ccccc4F)n3)ncc21 [Compound I-312] | – | – | – | – | – | – | 20 to 40 | 20 to 40 | 40 to 60 | 20 to 40
